Measurements published in US20230381163A1, “DABIGATRAN COMPOSITIONS AND METHODS OF TREATING AGE-RELATED MACULAR DEGENERATION” (The United States Government As Represented By The …, priority 2022, published 2023).

Columns and labels:
[1] = test system: VEGF secretion in ARPE-19 cells; assay: VEGF secretion into apical supernatant of ARPE-19 monolayers (ELISA); type: cell-based, human
Procedure: (§1) Cell culture experiments: Cells. […] Frontiers in Aging Neuroscience 9).
VEGF ELISA. VEGF in the supernatant was measured using the Quantikine® Human VEGF Immunoassay (R & D System) according to the manufacturer's protocol. In brief, 200 μl of standard/sample was mixed with 50 μl of assay diluent and added to the plate precoated with the capture antibody. After washing, 200 μl of the VEGF detection antibody (polyclonal antibody specific for human VEGF conjugated to horseradish peroxidase) was added, followed by freshly prepared substrate reagents (stabilized hydrogen peroxide and tetramethylbenzidine). The reaction was terminated using 50 μl of stop solution and absorbance was measured at λ1 450 nm with wavelength correction λ2 at 540 nm. VEGF concentration of samples were calculated comparing the absorbance with the standards and converted into fold change considering the serum-free condition as 1 in the scale.

[2] = test system: CTGF expression in ARPE-19 cells; assay: Thrombin-induced CTGF expression in ARPE-19 cell lysates (western blot); details: for reduction of thrombin-induced CTGF expression: thrombin 1 U/mL
Procedure: Cell culture experiments: Cells. Human ARPE-19 (ATCC® CRL-2302™; American Type Culture Collection, Manassas VA) cells were cultured in DMEM cell culture media (Gibco/ThermoFisher Scientific) containing high glucose DMEM with D-glucose (4.5 g/L), L-glutamine, sodium pyruvate (110 mg/L), Penicillin and Streptomycin (1×) and 10% of FBS. Cells (<passage 10 after purchase) were expanded in T75 cell culture flasks at 37° C., in the presence of 5% CO2. Confluent cells were trypsinized with 0.05% trypsin (Gibco), and equal numbers of cells were seeded on 6-well transwell filters/plate (Costar). […] Integrity of the cell monolayer was assessed by Transepithelial resistance (TER) measurements using an EVOM volt-ohmmeter (World Precision Instruments) four weeks after plating. RPE monolayers with a stable TER repeatedly measured as ˜40-45 S2 cm 2 were used for these experiments.
Treatments. Prior to each experiment, the cell monolayer was washed with serum-free medium (SFM) and maintained in SFM for 24 hours. […] Treatments were performed on the apical side of the transwell membrane, which represents the retinal side of the RPE in vivo. Some of the cells were treated with thrombin (EMD Millipore Corp), complement components C3a, C5a (Complement Technology), thrombin agonist PAR1-AP (Sigma-Aldrich; amino acid sequence SFLLRN (SEQ ID NO: 1)), thrombin inhibitor dabigatran etexilate (Sigma-Aldrich), C3 inhibitor compstatin (R&D Systems), AP inhibitor TT30 (Alexion Therapeutics), a protease inhibitor alpha1-antitrypsin (Sigma-Aldrich), and the thrombin receptor proteinase activated receptor 1 inhibitor SCH 79797 (Sigma-Aldrich). Treatments were performed 60 min prior to the addition of thrombin. Cell culture supernatant and lysate were collected after specific time points or after 24 hrs of treatment and stored at −20° C. for later use.
Western blotting. […] Cell lysates were collected in RIPA cell lysis buffer containing 150 mM NaCl, 1.0% IGEPAL® CA-630, 0.5% sodium deoxycholate, 0.1% SDS, 50 mM Tris (pH 8.0) (Sigma-Aldrich) in presence of 1×protease inhibitor (Sigma-Aldrich). Equal amount of each samples were loaded on 4-20% Criterion™ TGX™ precast gels (Bio-Rad Laboratories, Inc.) (Annamalai, B., et al. (2020). Invest Ophthalmol Vis Sci 61, 45). Proteins were transferred to a nitrocellulose membrane and incubated in primary antibody followed by appropriate secondary antibodies coupled to peroxidase, followed by band development and detection using Clarity™ Western ECL blotting substrate (Bio-Rad Laboratories, Inc.) and chemiluminescent detection. Protein bands were scanned and densities quantified using ImageJ software. The following antibodies were used: C3a (1:1000; Complement Technology), C5a (1:1000; Abcam), connective tissue growth factor/CTGF (1:1000; Abcam), C3d anti-C3d (clone 11, 1:1000; generation of the antibody is described in (Thurman, J. M., et al. (2013). J Clin Invest 123, 2218-2230)), VEGF (1:1000, Santa Cruz Biotechnology, Inc.), β-actin (1:2000; Cell Signaling Technology) and concentrations selected based on the data sheet recommendations.
ARPE-19 cell monolayers were treated with thrombin (0.5-10 U/ml) and cell lysates were collected and analyzed for CTGF levels at 4 hrs post treatment by western blotting.

thrombin = thrombin (Homo sapiens, UniProt P00734); assay: Thrombin activity in cell-free system; details: 100 μM
Procedure: Thrombin activity in cell-free system. To measure the level of active thrombin in cell-free system, known concentrations of thrombin were prepared in 100 μl of assay buffer (50 mM Tris, 100 mM NaCl, and 0.01% BSA; pH 7.5), subsequently 50 μl of thrombin substrate was added and incubated at 37° C. Fluorescence was measured at 405 nm using the Biotek Synergy HT Microplate Reader and thrombin activity was determined by extrapolation from a thrombin standard curve. Effects of inhibitors were tested by pre-incubating the inhibitors with thrombin, before substrate incorporation.

complement component C3 = assay: Thrombin-mediated C3 cleavage in apical supernatants of ARPE-19 cells (western blot); type: cell-based, human; details: 100 μM
Procedure: Second, it was tested whether thrombin can cleave complement components (Huber-Lang, M., et al. (2006). Nat Med 12, 682-687; and Krisinger, M. J., et al. (2012). Blood 120, 1717-1725), specifically C3 and C5, producing cleavage products potentially different from those produced by classical convertases. To test the effects of thrombin on complement cleavage, the apical supernatants of treated ARPE-19 cell monolayers were analyzed by western blotting. Cleavage of C3α was evaluated using an antibody specific for C3a (FIG. 5A, left-hand blot). The C3a antibody detected C3, the C3α band as well as other fragments containing C3a. Thrombin caused a concentration dependent cleavage of complement component C3 (˜190 kDa), caused reduction of the 120 kDa C3a band and generation of a new 80 kDa fragment. Fragments at 32 kDa and 9-10 kDa with higher doses of thrombin treatment (FIG. 5A, 10 U/mL) were also observed. The 9-10 kDa band ran at the same molecular weight as purified C3a (FIG. 11). The reduction of the 120 kDa fragment was correlated with the generation of the 80 kDa fragment (FIG. 5B). The loss of the 120 kDa fragment was prevented by either dabigatran (10 μM) or the C3 inhibitor compstatin (100 μM), which inhibits complement both on cell membranes as well as in fluid phase, but not by TT30 (10 μM), which is an inhibitor that prevents membrane-bound AP activation (FIG. 5C). […]

ARPE-19 cell monolayers = assay: Transepithelial resistance (TER) of ARPE-19 monolayers; type: cell-based, human
Procedure: as §1
Thrombin reduces barrier function in RPE cells and induces CTGF expression and VEGF secretion. […] Thrombin is a serine-protease and is a known contributor to the damage of the blood-brain barrier (Machida, T., et al. (2017). PLoS One 12, e0177447). To examine the effects of thrombin on the blood-retina barrier (i.e., TER), dose- (0.5-10.0 U/ml) and time- (4 and 24 hrs) dependent treatments were performed on stable ARPE-19 cell monolayers, and treatment effects on TER levels to TER at baseline (serum free media/SFM before treatment, 0 hrs) (FIG. 2) were compared.

For “C3a: complement component, anaphylatoxin (Complement Technology)”, which “effect on VEGF secretion” value ([1]; C3a, 260 nM) is on record?
Its value is “weak stimulator”.

With “alpha1-antitrypsin: general (non-specific) protease inhibitor (Sigma-Aldrich)” as the molecule, how does the “reduction of thrombin-induced CTGF expression” value ([2]; alpha1-antitrypsin 1 mg/mL) read?
Its value is 5.3 fold.

Which results are given for CC(C)c1ccc(Cn2ccc3c4c(N)nc(NC5CC5)nc4ccc32)cc1 [SCH79797]?
reduction of thrombin-induced CTGF expression ([2]; SCH79797 250 μM): 1.7 fold; effect on thrombin-induced VEGF secretion ([1]; SCH79797): reduced

With CC[C@H](C)[C@H](N)C(=O)N[C@H]1CSSC[C@@H](C(=O)N[C@H](C(N)=O)[C@@H](C)O)NC(=O)[C@H](CCCN=C(N)N)NC(=O)[C@H](Cc2cnc[nH]2)NC(=O)[C@H](Cc2cnc[nH]2)NC(=O)CNC(=O)[C@H](Cc2c[nH]c3ccccc23)NC(=O)[C@H](CC(=O)O)NC(=O)[C@H](CCC(N)=O)NC(=O)[C@H](C(C)C)NC(=O)[C@H](C(C)C)NC1=O [compstatin] as the molecule, how does the “effect on thrombin enzyme activity” value (thrombin) read?
The value was “did not affect”.

What about the “effect on thrombin-mediated loss of the 120 kDa C3 fragment” value (complement component C3) of the same molecule?
The value was “prevented”.

And the “effect on thrombin-induced CTGF expression” value ([2]; compstatin)?
Its value is “partially reduce”.

And the “effect on thrombin-induced VEGF secretion” value ([1]; compstatin)?
The value was “partially reduce”.

For thrombin, which “effect on CTGF expression” value ([2]; thrombin, 4 hrs, P<0.05) is on record?
Its value is “significantly increased”.

What about the “effect on TER” value (ARPE-19 cell monolayers; thrombin 0.5 U/mL, apical) of the same molecule?
Its value is “barely affected”.

What about the “effect on TER” value (ARPE-19 cell monolayers; thrombin 2.5 U/ml, 24 hrs) of the same molecule?
The value was “significant damage to the epithelial barrier integrity”.

And the “effect on TER” value (ARPE-19 cell monolayers; thrombin 5 U/ml and 10 U/ml, 4 hrs)?
Its value is “significant barrier function loss”.

What about the “increase of VEGF in apical supernatants” value ([1]; thrombin alone) of the same molecule?
The value was 2.5 fold.

B1: C5a: complement component, anaphylatoxin (Complement Technology) (protein, UniProt P01031 678-751, looked up)
C5a anaphylatoxin: TLQKKIEEIAAKYKHSVVKKCCYDGACVNNDETCEQRAARISLGPRCIKAFTECCVVASQLRANISHKDMQLGR
modifications: C5a anaphylatoxin
How did the “effect on VEGF secretion” value ([1]; C5a, 52 nM) turn out when B1 was run?
The value was “increasing VEGF levels to that identified by thrombin stimulation”.
